Data from PubChem BioAssay (NCI).
“And” between values parts separate entries of the source, which are not always exact repeats. Identical values can stand only once.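 Compound exposure: 48 hours, 5 concentrations, 96-well plates. GI50 = concentration required for 50% inhibition of growth. TGI is the concentration that stops growth completely.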

How the values were obtained:
Assay in all cases: DTP human tumour cell line panel, 48 h
HL-60(TB) leukemia = system: HL-60(TB) leukemia
LOX IMVI melanoma = system: LOX IMVI melanoma
MCF7 breast = system: MCF7 breast
UACC-62 melanoma = system: UACC-62 melanoma
COLO 205 colon = system: COLO 205 colon
SNB-75 CNS = system: SNB-75 CNS
MALME-3M melanoma = system: MALME-3M melanoma
U251 CNS = system: U251 CNS
SF-539 CNS = system: SF-539 CNS
SF-295 CNS = system: SF-295 CNS

Compound	GI50 (HL-60(TB) leukemia) [µM]	TGI (HL-60(TB) leukemia)	GI50 (LOX IMVI melanoma)	TGI (LOX IMVI melanoma)	TGI (MCF7 breast)	TGI (UACC-62 melanoma)	GI50 (COLO 205 colon) [µM]	TGI (SNB-75 CNS) [µM]	GI50 (MALME-3M melanoma) [µM]	TGI (MALME-3M melanoma)	GI50 (U251 CNS) [µM]	TGI (U251 CNS)	TGI (SF-539 CNS)	GI50 (SF-295 CNS) [µM]	TGI (SF-295 CNS)	GI50 (MCF7 breast) [µM]	GI50 (UACC-62 melanoma) [µM]	TGI (COLO 205 colon)	GI50 (SNB-75 CNS) [µM]	GI50 (SF-539 CNS) [µM]
Cc1ccc2oc(=O)c3c(O)c4cccc(OC5OC(C)C6O[C@@H](c7ccccc7)OC6C5OC5OC(C)C(O)C(O)C5O)c4c4oc(=O)c1c2c34 (some centres not stated)	0.0418	0.7 µM and 0.361 µM	0.0293 µM and 0.0483 µM	0.538 µM and 1.51 µM	2.48 µM	0.444 µM and 0.432 µM	0.0807	1.54	0.126	1.58 µM and 2.52 µM	0.0825	1.16 µM and 1.58 µM	1.34 µM and 1.39 µM	0.0449	0.523 µM and 1.56 µM	–	–	–	–	–
O=C(O)COc1ccc(OCC(=O)O)cc1	0.159	0.873 µM	0.276 µM	2.34 µM	10.7 µM	2.9 µM	1.05	10.1	0.571	10.5 µM	0.251	2.47 µM	5.06 µM	0.445	11.3 µM	0.0567	0.326	13.4 µM	0.684	0.365
COc1ccc(Nc2ncnc3ccc(-c4cncc(NS(C)(=O)=O)c4)cc23)cc1Cl	2.02	6.72 µM	1.5 µM	4.28 µM	8.01 µM	8.31 µM	1.8	6.37	1.55	11.2 µM	2.81	13.6 µM	7.72 µM	2.51	10.1 µM	1.63	2.14	4.47 µM	0.352	1.84
COc1ccc(CSC2=C(C#N)C(=O)NC3(CCCCC3)S2)cc1	–	19 µM	–	> 64.8 µM	> 100 µM	> 100 µM	–	> 100	–	> 100 µM	–	> 100 µM	> 100 µM	–	> 100 µM	–	–	> 100 µM	–	–
CC(C)C[C@H](NC(=O)Cn1cccc(CNC(=O)c2ccccc2)c1=O)B(O)O	0.653	> 100 µM	0.244 µM	0.811 µM	> 100 µM	3.54 µM	1.65	2.33	0.16	1.88 µM	0.517	19.2 µM	0.454 µM	0.442	2.24 µM	0.409	0.486	97.8 µM	0.32	0.133
COc1c(OC)c(OC)c2c(=O)cc(-c3ccc(OC(C)C)cc3)oc2c1OC	–	13 µM	–	> 55.2 µM	35.8 µM	32 µM	–	> 49.9	–	> 50.3 µM	–	> 52 µM	51.2 µM	–	> 53.6 µM	–	–	> 50.2 µM	–	–
CCC[CH2][Sn]([CH2]CCC)([CH2]CCC)/[C](=C/[Si](C)(C)c1ccccc1)c1ccc2c(c1)OCO2	15.8	35.4 µM	21.3 µM	66.7 µM	53.7 µM	–	18.7	> 100	3.2	15 µM	18.8	40 µM	> 100 µM	26.8	49.6 µM	20.7	–	39 µM	58.5	36
O=C1NC(=O)C(c2cccc(Cl)c2)=C1Nc1ccc(Cl)c(C(=O)O)c1	> 25	> 25 µM	> 25 µM	> 25 µM	> 25 µM	> 25 µM	> 25	> 25	> 25	> 25 µM	> 25	> 25 µM	> 25 µM	> 25	> 25 µM	> 25	> 25	> 25 µM	> 25	> 25
FC(F)c1ncc(-c2ccc(C(F)(F)F)cc2)c(NC2CCCCCC2)n1	> 10	> 10 µM	> 10 µM	> 10 µM	> 10 µM	> 10 µM	> 10	> 10	> 10	> 10 µM	> 10	> 10 µM	> 10 µM	> 10	> 10 µM	> 10	> 10	> 10 µM	> 10	> 10
CN1CCN(Cc2ccc(NC(=O)c3[nH]ncc3Nc3ncnc4[nH]ccc34)cc2)CC1	0.27	0.626 µM	0.201 µM	0.759 µM	29.1 µM	1.82 µM	0.193	0.371	0.472	0.959 µM	0.251	10.7 µM	0.429 µM	0.211	5.01 µM	0.118	0.411	0.427 µM	0.0393	0.133
Fc1ccc2c(c1)C1=C(CCC2)C(c2ccc(Cl)cc2)NC(=S)N1 (configuration not stated)	7.51	> 100 µM	36 µM	> 100 µM	> 100 µM	> 100 µM	62.1	> 100	22.6	80.2 µM	54.7	> 100 µM	> 100 µM	47	> 100 µM	26.6	33.6	> 100 µM	69.9	37.6
COc1ccc(C2NN=C3c4ccccc4CCC32)cc1 (configuration not stated)	1.92	5.27 µM	8.25 µM	33.5 µM	11.5 µM	> 100 µM	7.8	5.58	5.22	38.4 µM	5.92	> 100 µM	28.8 µM	2.48	13.2 µM	2.56	8.34	22.5 µM	0.284	6.73
COc1cc(F)c(F)cc1C(=O)c1cnc(NC2CCN(S(C)(=O)=O)CC2)nc1N	2.01	10 µM	3.16 µM	> 20.7 µM	> 25 µM	7.63 µM	2.42	10.9	2.78	24.2 µM	2.42	24.8 µM	11.1 µM	2.9	23.7 µM	0.76	3.13	6.14 µM	3.83	3.85
CN(C)C=N[C@@H](C(=O)O)c1ccccc1	–	> 100 µM	–	> 100 µM	> 100 µM	> 100 µM	–	> 100	–	> 100 µM	–	> 100 µM	–	–	> 100 µM	–	–	> 100 µM	–	–
Nc1c(C(=O)c2cccc(C(O)CO)c2)cnn1-c1ccc(F)cc1 (configuration not stated)	> 12.9	> 25 µM	> 25 µM	> 25 µM	> 25 µM	> 25 µM	> 25	> 25	> 25	> 25 µM	> 25	> 25 µM	> 25 µM	> 25	> 25 µM	> 25	> 25	> 25 µM	> 25	> 25
Cc1nn(C)c2ncnc(N/N=C/c3cccc(O)c3O)c12	0.322	1.43 µM	0.238 µM	4.05 µM	> 100 µM	5.98 µM	1.11	6.8	0.52	4.7 µM	0.513	> 100 µM	7.1 µM	2.73	49.9 µM	0.594	1.69	> 78.7 µM	0.548	0.371
CCN1CCN(c2cc(C(=O)Nc3cccc(Nc4ccc5c(OC)cccc5n4)c3)cc(C(F)(F)F)c2)CC1	3.82	11.4 µM	0.781 µM	1.96 µM	2.28 µM	5.77 µM	0.654	5.36	0.611	1.33 µM	1.36	4.94 µM	7.31 µM	0.803	2.25 µM	0.679	1.5	1.49 µM	1.05	3.28
COc1cc(Cl)c(CC(=O)c2c[nH]c3ccccc23)cc1OC	–	> 67.3 µM	–	> 100 µM	> 100 µM	> 100 µM	–	31.5	–	> 100 µM	–	44.4 µM	19.4 µM	–	> 68.3 µM	–	–	> 100 µM	–	–
COC1=C(OC)C(=O)C(C/C=C(\C)CC/C=C(\C)CC/C=C(\C)CC/C=C(\C)CC/C=C(\C)CC/C=C(\C)CC/C=C(\C)CC/C=C(\C)CC/C=C(\C)CCC=C(C)C)=C(C)C1=O	> 100	> 100 µM	> 100 µM	> 100 µM	> 100 µM	> 100 µM	> 100	> 100	> 100	> 100 µM	> 100	> 100 µM	> 100 µM	> 100	> 100 µM	> 100	> 100	> 100 µM	> 100	> 100
O=c1cc(-c2ccccc2)[nH]c2c1CCCC2	1.62	> 100 µM	5.88 µM	> 100 µM	> 100 µM	> 100 µM	1.99	> 100	3.48	> 100 µM	4.54	> 100 µM	> 100 µM	1.43	7.61 µM	1.14	5.91	6.42 µM	1.8	2.92
CC1=C(CO)C(=O)O[C@@H]([C@@H](C)[C@H]2CC[C@H]3[C@@H]4C[C@H]5O[C@]56[C@@H](O)C=CC(=O)[C@]6(C)[C@H]4CC[C@]23C)C1	–	0.821 µM	0.172 µM	0.547 µM	2.43 µM	2.7 µM	–	3.25	–	0.826 µM	–	1.52 µM	2.3 µM	–	3 µM	0.345	–	0.81 µM	–	–
CN1CCN(C(=O)c2ccc(NC(=O)Nc3ccc(-c4nc(N5CCOCC5)c5cccn5n4)cc3)cc2)CC1	0.101	5.21 µM	0.0206 µM	1.74 µM	2.73 µM	0.189 µM	0.0414	0.0684	0.0295	0.194 µM	0.0464	10.3 µM	0.393 µM	0.0322	0.239 µM	< 0.012	0.034	1.38 µM	0.0134	0.0481
COc1cc(C2c3cc4c(cc3OC(O)C2C)OCO4)cc(OC)c1OC (configuration not stated)	–	0.503 µM	–	> 100 µM	> 55.9 µM	> 100 µM	–	4.93	–	73.2 µM	–	> 40.1 µM	0.92 µM	–	> 48.8 µM	–	–	–	–	–
Cc1c(Nc2nccc3cc(CN4CC[C@@H](O)C4)cnc23)cccc1-c1cccc(-c2nc3cc(CN4CC[C@@H](C(=O)O)C4)cc(C#N)c3o2)c1C	9.93	59.7 µM	1.97 µM	4.27 µM	4.26 µM	38.1 µM	18.7	> 100	4.35	23.2 µM	12.1	26.8 µM	28.1 µM	3.98	> 100 µM	1.52	15.7	> 100 µM	15.1	5.9
O=S(=O)(/N=S(/Nc1ccccc1)C(F)(F)Cl)c1ccccc1 (configuration not stated)	–	> 100 µM	–	> 100 µM	> 100 µM	> 100 µM	–	> 100	–	> 100 µM	–	> 100 µM	> 100 µM	–	> 100 µM	–	–	> 100 µM	–	–
O=C1OCC2=C1C(c1cccc(C(F)(F)F)c1)c1cc3c(cc1N2CCO)OCCO3 (configuration not stated)	0.875	2.44 µM	1.66 µM	> 33.3 µM	> 33.3 µM	> 33.3 µM	0.868	–	2.86	> 33.3 µM	1.36	> 33.3 µM	3.11 µM	0.895	> 33.3 µM	1.09	0.901	2.48 µM	–	0.849
COc1cc(/C=C/C(=O)CC(=O)/C=C/c2cc(OC)c(O)c(OC)c2)cc(OC)c1O	–	25 µM and 42.6 µM	15.8 µM	25 µM and 66.3 µM	25 µM and > 100 µM	–	19.3	61.4	14.8	25 µM and 30.6 µM	–	25 µM and 36.1 µM	25 µM and > 100 µM	32.3	25 µM and > 100 µM	19.6	5.51	25 µM and 40.2 µM	–	44.2
